Measurements from patent US20160008243A1, “METHOD OF TREATING HAIR” (priority 2013, published 2016).

Assay: Hair switch straightening test (switch volume after treatment, rinsing, combing and drying)
Protocol: Dark brown European wavy#6 switches of length 25 cm and weight 2 gms, were dosed with 2 ml each of different levels of trans aconitic acid solutions. They were combed straight and left to develop for at least 20 minutes. They were subsequently rinsed for 30 seconds under the tap. They were then combed straight and left to dry overnight. When dry the switches were combed straight and pictures taken. All switches looked straight without the waviness of the pre-treated switches. […] (Here volume refers to the projection of the switch image on to the screen and is given in mm^2).

[1] = 5% solution at pH 2, 2 ml per 2 g switch, at least 20 min, rinsed, dried overnight

SMILES	% benefit over water (0.5% solution at pH 2) [%]	Volume in mm^2 (projection of the switch image on to the screen) (0.5% solution at pH 2) [mm^2]	% benefit over water (1% solution at pH 2) [%]	Volume in mm^2 (projection of the switch image on to the screen) (1% solution at pH 2) [mm^2]	% benefit over water (2.5% solution at pH 2) [%]	Volume in mm^2 (projection of the switch image on to the screen) (2.5% solution at pH 2) [mm^2]	% benefit over water (5% solution at pH 2) [%]	Volume in mm^2 (projection of the switch image on to the screen) [1] [mm^2]	% benefit over water (5% solution at pH 3) [%]	Volume in mm^2 (projection of the switch image on to the screen) (5% solution at pH 3) [mm^2]	Hair straightening benefit (in words) (applied to hair, conclusion from the table)
O=C(O)/C=C(\CC(=O)O)C(=O)O [trans Aconitic acid, trans aconitic acid]	15.4	12073	20.4	11363	24.6	10763	40.8	8456	17.3	11812	gives hair straightening benefits
O=C(O)CC(O)(CC(=O)O)C(=O)O [Citric acid, reference compound]							33.6	9481			
